Results reported in US10597388B2, “Pyridazinone herbicides” (FMC CORPORATION, priority 2014, dated 2020).

Tests used:
Test in all cases: Test D controlled growth environment herbicide test, pre- and postemergence
Format in all cases: in vivo
[1] = system: barley, spring (spring barley, Hordeum vulgare)
Method in brief: (§1)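 Rating is visual, 0–100 scale (100 = complete control), made against untreated plants 14–21 d after treatment in controlled growth conditions. Postemergence sprays went onto 1- to 4-leaf plants in peat medium; preemergence sprays onto silt loam after sowing; formulation included a surfactant.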

[2] = system: barley, winter (winter barley, Hordeum vulgare)
Method in brief: as §1

[3] = system: bluegrass (annual bluegrass, Poa annua)
Method in brief: as §1

[4] = system: bromegrass, downy (downy bromegrass, Bromus tectorum)
Method in brief: as §1

[5] = system: canarygrass (Phalaris minor)
Method in brief: as §1

[6] = system: chamomile (scentless chamomile, Matricaria inodora)
Method in brief: as §1

[7] = system: foxtail, green (green foxtail, Setaria viridis)
Method in brief: as §1

[8] = system: galium (catchweed bedstraw, Galium aparine)
Method in brief: as §1

kochia (Kochia scoparia) = system: kochia (Kochia scoparia)
Method in brief: as §1

[9] = system: lambsquarters (Chenopodium album)
Method in brief: as §1

[10] = system: mustard, wild (wild mustard, Sinapis arvensis)
Method in brief: as §1

[11] = system: oat, wild (wild oat, Avena fatua)
Method in brief: as §1

[12] = system: speedwell (bird's-eye speedwell, Veronica persica)
Method in brief: as §1

[13] = Postemergence, 31 g ai/ha, scale 0 to 100 (0 no effect, 100 complete control)
[14] = Postemergence, 125 g ai/ha, visual rating on scale 0 (no effect) to 100 (complete control), 14 to 21 d
[15] = Postemergence, 250 g ai/ha, scale 0 to 100 (0 no effect, 100 complete control)
[16] = Preemergence, 62 g ai/ha, scale 0 to 100 (0 no effect, 100 complete control)
[17] = Preemergence, 125 g ai/ha, scale 0 to 100 (0 no effect, 100 complete control)
[18] = Preemergence, 250 g ai/ha, scale 0 to 100 (0 no effect, 100 complete control)
[19] = postemergence, 62 g ai/ha, scale 0 to 100, 0 no effect, 100 complete control

CC(=O)Oc1c(Br)nn(C)c(=O)c1-c1c(C)ccc2ccccc12 [Compound 129]
10: Barley, Winter plant response rating [2, 13] | Plant response rating, Barley, Winter [2, 18] | Bluegrass plant response rating [3, 13] | Plant response rating, Bluegrass [3, 16]
75: Plant response rating, Canarygrass [5, 14] | Plant response rating (scale of 0 to 100), Galium ([8]; Preemergence, 31 g ai/ha) | Lambsquarters plant response rating [9, 13] | Plant response rating (scale of 0 to 100), Lambsquarters ([9]; Preemergence, 62 g ai/ha) | Plant response rating (scale of 0 to 100), Mustard, Wild ([10]; Preemergence, 31 g ai/ha) | Plant response rating (scale of 0 to 100), Oat, Wild ([11]; Preemergence, 31 g ai/ha) | Plant response rating (scale of 0 to 100), Oat, Wild ([11]; Preemergence, 62 g ai/ha) | Plant response rating, Speedwell [12, 15]
0: Plant response rating (scale of 0 to 100), Barley, Spring ([1]; Preemergence, 31 g ai/ha) | Plant response rating, Barley, Spring [1, 16] | Plant response rating, Barley, Spring [1, 17] | Plant response rating (scale of 0 to 100), Barley, Winter ([2]; Preemergence, 31 g ai/ha) | Plant response rating, Barley, Winter [2, 16] | Plant response rating, Barley, Winter [2, 17] | Plant response rating (scale of 0 to 100), Bluegrass ([3]; Preemergence, 31 g ai/ha)
80: Plant response rating, Bromegrass, Downy [4, 15] | Plant response rating, Bromegrass, Downy [4, 18] | Plant response rating, Canarygrass [5, 15] | Foxtail, Green plant response rating [7, 13] | Plant response rating, Foxtail, Green [7, 17] | Plant response rating, Foxtail, Green [7, 19] | Plant response rating, Kochia (kochia (Kochia scoparia); [14]) | Mustard, Wild plant response rating [10, 13] | Plant response rating, Mustard, Wild [10, 19]
25: Plant response rating, Barley, Spring [1, 19] | Plant response rating, Bluegrass [3, 17] | Bromegrass, Downy plant response rating [4, 13]
65: Plant response rating, Bromegrass, Downy [4, 14] | Plant response rating, Bromegrass, Downy [4, 17] | Plant response rating, Speedwell [12, 14]
15: Plant response rating, Bluegrass [3, 19] | Plant response rating (scale of 0 to 100), Bromegrass, Downy ([4]; Preemergence, 31 g ai/ha) | Plant response rating, Bromegrass, Downy [4, 16] | Plant response rating (scale of 0 to 100), Canarygrass ([5]; Preemergence, 62 g ai/ha)
90: Plant response rating, Canarygrass [5, 18] | Galium plant response rating [8, 13] | Plant response rating (scale of 0 to 100), Galium ([8]; Preemergence, 62 g ai/ha) | Plant response rating, Galium [8, 17] | Plant response rating, Lambsquarters [9, 19] | Oat, Wild plant response rating [11, 13] | Plant response rating, Oat, Wild [11, 17] | Plant response rating, Oat, Wild [11, 19] | Plant response rating (scale of 0 to 100), Speedwell ([12]; Preemergence, 31 g ai/ha)
60: Plant response rating, Bluegrass [3, 18] | Plant response rating, Canarygrass [5, 17] | Kochia plant response rating (kochia (Kochia scoparia); [13]) | Plant response rating, Speedwell [12, 19]
85: Plant response rating, Foxtail, Green [7, 14] | Plant response rating, Kochia (kochia (Kochia scoparia); [15]) | Plant response rating, Kochia (kochia (Kochia scoparia); [17])
20: Barley, Spring plant response rating [1, 13] | Plant response rating, Barley, Spring [1, 18] | Plant response rating, Barley, Winter [2, 19] | Plant response rating, Bluegrass [3, 14]
5: Plant response rating (scale of 0 to 100), Canarygrass ([5]; Preemergence, 31 g ai/ha) | Plant response rating (scale of 0 to 100), Kochia (kochia (Kochia scoparia); Preemergence, 31 g ai/ha)
55: Plant response rating, Canarygrass [5, 19] | Plant response rating (scale of 0 to 100), Kochia (kochia (Kochia scoparia); Preemergence, 62 g ai/ha)
30: Plant response rating, Barley, Spring [1, 14] | Plant response rating, Barley, Spring [1, 15] | Plant response rating, Barley, Winter [2, 14] | Plant response rating, Bluegrass [3, 15] | Canarygrass plant response rating [5, 13]
100: Chamomile plant response rating [6, 13] | Plant response rating, Chamomile [6, 14] | Plant response rating, Chamomile [6, 15] | Plant response rating (scale of 0 to 100), Chamomile ([6]; Preemergence, 31 g ai/ha) | Plant response rating (scale of 0 to 100), Chamomile ([6]; Preemergence, 62 g ai/ha) | Plant response rating, Chamomile [6, 17] | Plant response rating, Chamomile [6, 18] | Plant response rating, Galium [8, 14] | Plant response rating, Galium [8, 15] | Plant response rating, Galium [8, 19] | Plant response rating, Kochia (kochia (Kochia scoparia); [18]) | Plant response rating, Lambsquarters [9, 15] | Plant response rating (scale of 0 to 100), Lambsquarters ([9]; Preemergence, 31 g ai/ha) | Plant response rating, Lambsquarters [9, 17] | Plant response rating, Lambsquarters [9, 18] | Plant response rating, Mustard, Wild [10, 15] | Plant response rating (scale of 0 to 100), Mustard, Wild ([10]; Preemergence, 62 g ai/ha) | Plant response rating, Mustard, Wild [10, 17] | Plant response rating, Mustard, Wild [10, 18] | Plant response rating, Oat, Wild [11, 15] | Plant response rating, Oat, Wild [11, 18] | Plant response rating (scale of 0 to 100), Speedwell ([12]; Preemergence, 62 g ai/ha) | Plant response rating, Speedwell [12, 17] | Plant response rating, Speedwell [12, 18]
98: Plant response rating, Chamomile [6, 19] | Plant response rating, Mustard, Wild [10, 14]
95: Plant response rating, Foxtail, Green [7, 15] | Plant response rating, Foxtail, Green [7, 18] | Plant response rating, Galium [8, 18] | Plant response rating, Lambsquarters [9, 14] | Plant response rating, Oat, Wild [11, 14]
70: Plant response rating (scale of 0 to 100), Foxtail, Green ([7]; Preemergence, 62 g ai/ha) | Plant response rating, Kochia (kochia (Kochia scoparia); [19])
35: Plant response rating, Barley, Winter [2, 15] | Plant response rating (scale of 0 to 100), Foxtail, Green ([7]; Preemergence, 31 g ai/ha) | Speedwell plant response rating [12, 13]
40: Plant response rating, Bromegrass, Downy [4, 19]
